Assay results: US11879021B2, “Cyclic peptides and uses thereof” (UNIVERSITÉ DE MONTRÉAL, priority 2016, dated 2024)

Key:
[1] = test system: R-FSL-1 (TLR2 agonist)-induced TNF-α and CCL-2 release in RAW macrophages; test: R-FSL-1-induced TNF-α and CCL-2 release in RAW macrophages; format: cell-based, murine; conditions: 10^−7 M
apoE−/− mice = test: Murine atherosclerosis model (apoE−/− mice on atherogenic diet), aortic lesions; format: in vivo; conditions: 300 nmol/kg daily s.c. for 8 weeks
Description: Experiments were performed in male apoE−/− mice fed an atherogenic diet (D12108, cholate-free AIN-76A semi-purified diet, Research Diets Inc., New Brunswick, NJ) from 4 weeks of age. MPE-298 (300 nmol/kg), MPE-267 (300 nmol/kg) or vehicle (0.9% NaCl), were administered by daily by subcutaneous (s.c.) injections for 8 weeks, from 12 weeks of age, as shown schematically in FIG. 8A.

[2] = test system: mice exposed to intense blue light; format: in vivo; conditions: 289 nmol/kg daily s.c. for 7 days
Text: The acute model of light-induced retinal degeneration uses short exposure to blue light to induce photoreceptor cell death leading to loss of vision (Grimm and Remé, Methods Mol Biol. 2013; 935: 87-97). Mice were exposed mice to intense blue light (wavelength=425 nm; exposure intensity=6000 lux) for five (5) successive days. The treatment was started one day after start of blue-light exposure (D1), for seven (7) successive days of daily subcutaneous (s.c) administration at 289 nmol/kg of test item solutions (MPE-001 and MPE-298). On Day 7, mice were dark adapted for electroretinography (ERG) analysis. […]
ERGs were recorded from wildtype and age matched knockout mice on Espion® ERG Diagnosys machine and a ColorDome® Ganzfeld stimulator (Diagnosys LLC, Lowell, MA). […]
Flash ERG were measured using corneal DTL Plus electrodes (Diagnosys® LLC). […] Scotopic responses were simultaneously recorded from both eyes of the dark-adapted animals at the following increasing light intensities: 0.5, 1.0, 3.0 and 10.0 cd-s/m^2. […] The amplitude and latency of major ERG components were measured with the Espion® software (Diagnosys® LLC). […] The ERG a-wave amplitudes were measured from the baseline to the primary negative peak and the b-wave was measured from the trough of the a-wave to the maximum of the […] positive peak. […]

In the case of `C=CCN1CC#CCN(NC(=O)[C@H](C)N)C(=O)N[C@H](Cc2c[nH]c3ccccc23)C(=O)N[C@@H](C)C(=O)N[C@@H](Cc2c[nH]c3ccccc23)C(=O)N[C@H](Cc2ccccc2)C(=O)N[C@H](C(N)=O)CCCC1` [MPE-298], the “inhibitory effect on R-FSL-1-induced CCL-2 release compared with reference standard DBG178 (MPE-001)” value [1] is reported as “significantly higher”, the “reduction of aortic lesions relative to 0.9% NaCl (vehicle)” value (apoE−/− mice) is reported as 42% and the “subretinal inflammation (immune cell infiltration, notably IL-1β-expressing immune cells, in the retina)” value ([2]; F4/80-positive cells in RPE flatmounts) is reported as “reduce”. For the same compound, the “outer nuclear layer (ONL) thickness” value ([2]; mice exposed to blue light 6000 lux) was “preserved”.
